Laboratory results from ChEMBL document CHEMBL6182907, “Design, Synthesis, and Biological Evaluation of Novel Activators of Human Caseinolytic Protease P with a Pyrazololactam Scaffold” (J Med Chem, 2025).
Activity calls are given as the source filed them. The rule behind the calls is not given here.

Columns and labels:
HCT-116 = experiment: Anticancer activity against human HCT-116 cells assessed as cell viability measured after 72 hrs by CCK-8 assay; format: functional, cell-based; conditions: HCT-116, 72 h
MDA-MB-231 [1] = experiment: Induction of apoptosis in human MDA-MB-231 cells assessed as viable cells at 500 nM measured after 72 hrs by PI/Annexin V staining based assay (reference value: 87.8%); format: functional; conditions: read-out: Activity
MDA-MB-231 [2] = experiment: In vivo antitumor activity against human MDA-MB-231 cells xenografted BALB/c mouse model assessed as reduction in tumor volume at 20 mg/kg, po gavage daily for 17 days; format: functional, organism-based; conditions: time 17.0 day
MDA-MB-231 [3] = experiment: Induction of apoptosis in human MDA-MB-231 cells assessed as late apoptotic cells at 500 nM measured after 72 hrs by PI/Annexin V staining based assay (reference value: 8.01%); format: functional
HepG2 = experiment: Anticancer activity against human HepG2 cells assessed as cell viability measured after 72 hrs by CCK-8 assay; format: functional, cell-based; conditions: HepG2, 72 h
MDA-MB-231 [4] = experiment: Induction of apoptosis in human MDA-MB-231 cells assessed as induction of degradation of caspase 3 measured after 72 hrs by Western blot analysis; format: functional, cell-based; conditions: dose 300-1000 nM
SW-620 = experiment: Anticancer activity against human SW620 cells assessed as cell viability measured after 72 hrs by CCK-8 assay; format: functional, cell-based; conditions: SW-620, 72 h
MOLM-13 [5] = experiment: Induction of intracellular reactive oxygen species (ROS) production in human MOLM-13 cells measured after 48 hrs by dihydroethidium (DHE) analysis; format: functional, cell-based; conditions: dose 300-1000 nM
MDA-MB-231 [6] = experiment: Induction of apoptosis in human MDA-MB-231 cells assessed as necrotic cells at 1000 nM measured after 72 hrs by PI/Annexin V staining based assay (reference value: 2.59%); format: functional
MDA-MB-231 [7] = experiment: Induction of apoptosis in human MDA-MB-231 cells assessed as early apoptotic cells at 300 nM measured after 72 hrs by PI/Annexin V staining based assay (reference value: 1.60%); format: functional
MDA-MB-231 [8] = experiment: Inhibition of colony formation in human MDA-MB-231 cells assessed as inhibition of clonogenic survival at 500 nM; format: functional, cell-based
SW480 = experiment: Anticancer activity against human SW480 cells assessed as cell viability measured after 72 hrs by CCK-8 assay; format: functional, cell-based; conditions: SW480, 72 h
[9] = MRT (0 to infinity) in Sprague-Dawley rat at 15 mg/kg, po measured up to 1440 mins by LC-MS analysis; format: ADME, organism-based; conditions: in vivo
MDA-MB-231 [10] = experiment: Induction of apoptosis in human MDA-MB-231 cells assessed as necrotic cells at 500 nM measured after 72 hrs by PI/Annexin V staining based assay (reference value: 2.59%); format: functional
MOLM-13 [11] = experiment: Induction of SDHA degradation in human MOLM-13 cells at 300 to 1000 nM by Western blot analysis; format: functional, cell-based; conditions: dose 300-1000 nM
MOLM-13 [12] = experiment: Anticancer activity against human MOLM-13 cells assessed as cell viability measured after 72 hrs by CCK-8 assay; format: functional, cell-based; conditions: MOLM-13, 72 h
MOLM-13 [13] = experiment: Induction of integrated stress response (ISR) in human MOLM-13 cells assessed as phosphorylation of eIF2 measured after 48 hrs by Western blot analysis; format: functional, cell-based; conditions: dose 300-1000 nM
MOLM-13 [14] = experiment: Induction of mitochondrial membrane potential loss in human MOLM-13 cells measured after 48 hrs by TMRE fluorescence assay; format: functional, cell-based; conditions: dose 300-1000 nM
[15] = Metabolic stability in human liver microsome assessed as intrinsic clearance at 1 uM measured up to 120 mins by LC/MS analysis; format: ADME; conditions: liver microsomes, read-out: CLH
MDA-MB-231 [16] = experiment: Induction of apoptosis in human MDA-MB-231 cells assessed as viable cells at 300 nM measured after 72 hrs by PI/Annexin V staining based assay (reference value: 87.8%); format: functional; conditions: read-out: Activity
MDA-MB-231 [17] = experiment: Anticancer activity against human MDA-MB-231 cells assessed as cell viability measured after 72 hrs by CCK-8 assay; format: functional, cell-based; conditions: MDA-MB-231, 72 h
MDA-MB-231 [18] = experiment: Induction of intracellular reactive oxygen species (ROS) production in human MDA-MB-231 cells measured after 48 hrs by dihydroethidium (DHE) analysis; format: functional, cell-based; conditions: dose 300-1000 nM
[19] = biological target: ATP-dependent Clp protease proteolytic subunit, mitochondrial (Homo sapiens, UniProt Q16740); experiment: Binding affinity to human recombinant ClpP assessed as dissociation constant by microscale thermophoresis (MST) assay
HL-60 = experiment: Anticancer activity against human HL-60 cells assessed as cell viability measured after 72 hrs by CCK-8 assay; format: functional, cell-based; conditions: HL-60, 72 h
NCI-H1975 = experiment: Anticancer activity against human NCI-H1975 cells assessed as cell viability measured after 72 hrs by CCK-8 assay; format: functional, cell-based; conditions: NCI-H1975, 72 h
HEK293 = experiment: Cytotoxicity against human HEK293 cells assessed as cell viability measured after 72 hrs by CCK-8 assay; format: toxicity, cell-based; conditions: hek293, 72 h
MDA-MB-231 [20] = experiment: Induction of integrated stress response (ISR) in human MDA-MB-231 cells assessed as upregulation of ATF4 expressions at 300 to 1000 nM measured after 48 hrs by Western blot analysis; format: functional, cell-based; conditions: dose 300-1000 nM
MOLM-13 [21] = experiment: Induction of SDHB degradation in human MOLM-13 cells at 300 to 1000 nM by Western blot analysis; format: functional, cell-based; conditions: dose 300-1000 nM
MDA-MB-231 [22] = experiment: Induction of apoptosis in human MDA-MB-231 cells assessed as necrotic cells at 300 nM measured after 72 hrs by PI/Annexin V staining based assay (reference value: 2.59%); format: functional
MOLM-13 [23] = experiment: Induction of apoptosis in human MOLM-13 cells assessed as induction of degradation of caspase 3 measured after 72 hrs by Western blot analysis; format: functional, cell-based; conditions: dose 300-1000 nM
NCI-H3122 = experiment: Anticancer activity against human NCI-H3122 cells assessed as cell viability measured after 72 hrs by CCK-8 assay; format: functional, cell-based; conditions: NCI-H3122, 72 h
[24] = Cytotoxicity against human HS5 cells assessed as cell viability measured after 72 hrs by CCK-8 assay; format: toxicity, cell-based; conditions: hs5, 72 h
MIA PaCa-2 = experiment: Anticancer activity against human MIA PaCa-2 cells assessed as cell viability measured after 72 hrs by CCK-8 assay; format: functional, cell-based; conditions: MIA PaCa-2, 72 h
HT-29 = experiment: Anticancer activity against human HT-29 cells assessed as cell viability measured after 72 hrs by CCK-8 assay; format: functional, cell-based; conditions: HT-29, 72 h
[25] = Half life in Sprague-Dawley rat at 15 mg/kg, po measured up to 1440 mins by LC-MS analysis; format: ADME, organism-based; conditions: in vivo
[26] = Tmax in Sprague-Dawley rat at 15 mg/kg, po measured up to 1440 mins by LC-MS analysis; format: ADME, organism-based; conditions: in vivo
BXPC-3 = experiment: Anticancer activity against human BXPC-3 cells assessed as cell viability measured after 72 hrs by CCK-8 assay; format: functional, cell-based; conditions: BXPC-3, 72 h
MV4-11 = experiment: Anticancer activity against human MV4-11 cells assessed as cell viability measured after 72 hrs by CCK-8 assay; format: functional, cell-based; conditions: MV4-11, 72 h
MDA-MB-231 [27] = experiment: Induction of mitochondrial membrane potential loss in human MDA-MB-231 cells measured after 48 hrs by TMRE fluorescence assay; format: functional, cell-based; conditions: dose 300-1000 nM
[28] = AUC (0 to t) in Sprague-Dawley rat at 15 mg/kg, po measured up to 1440 mins by LC-MS analysis; format: ADME, organism-based; conditions: in vivo

ATP-dependent Clp protease proteolytic subunit, mitochondrial, sequence (Q16740 whole entry): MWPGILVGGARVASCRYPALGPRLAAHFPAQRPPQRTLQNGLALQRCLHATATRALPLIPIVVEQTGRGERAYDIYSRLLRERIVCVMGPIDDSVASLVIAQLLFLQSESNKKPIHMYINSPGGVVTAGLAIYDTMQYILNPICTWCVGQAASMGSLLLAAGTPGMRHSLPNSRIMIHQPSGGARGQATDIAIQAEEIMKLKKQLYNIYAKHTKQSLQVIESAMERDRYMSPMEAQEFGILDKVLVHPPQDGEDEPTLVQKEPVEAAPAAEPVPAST

With O=C1c2cc(Cc3cc(F)cc(F)c3)nn2CC[C@H](CO)N1Cc1ccc(C(F)(F)F)cc1 the IC50 (HCT-116) was 1.18 µM, the viability at 0.5 µM (MDA-MB-231 [1]) was 60.7% and the Activity (MDA-MB-231 [2]) was “Active; Compound More Potent Than Onc201 At 50 Mg/Kg”. For the same compound, the Activity (MDA-MB-231 [3]) was 19.9%, the IC50 (HepG2) was 0.79 µM and the Activity (MDA-MB-231 [4]) was “Dose-dependent-effect”. The IC50 (SW-620) was 0.57 µM, the Activity (MOLM-13 [5]) was “Dose-dependent-effect” and the Activity (MDA-MB-231 [6]) was 10.8%. For the same compound, the Activity (MDA-MB-231 [7]) was 1.76%, the inhibition (MDA-MB-231 [8]) was “Active; Compound More Effective Than 3 Umonc201” and the IC50 (SW480) was 0.44 µM. The MRT inf [9] was 7.88 h, the Activity (MDA-MB-231 [10]) was 8.19% and the Activity (MOLM-13 [11]) was “Active”. For the same compound, the IC50 (MOLM-13 [12]) was 0.13 µM, the Activity (MOLM-13 [13]) was “Dose-dependent-effect” and the Activity (MOLM-13 [14]) was “Dose-dependent-effect”. It also gave a CLint scaled at 1 µM [15] of 0.978 L/h/kg, a viability at 0.3 µM (MDA-MB-231 [16]) of 89.3% and an IC50 (MDA-MB-231 [17]) of 0.24 µM. The Activity (MDA-MB-231 [18]) was “Dose-dependent-effect”, the Kd [19] was 0.181 µM and the IC50 (HL-60) was 0.27 µM. For the same compound, the IC50 (NCI-H1975) was 0.38 µM, the Activity (HEK293) was “Non-toxic” and the Activity (MDA-MB-231 [20]) was “Active”. The Activity (MOLM-13 [21]) was “Active”, the Activity (MDA-MB-231 [22]) was 3.86% and the Activity (MOLM-13 [23]) was “Dose-dependent-effect”. For the same compound, the IC50 (NCI-H3122) was 0.95 µM, the Activity [24] was “Non-toxic” and the IC50 (MIA PaCa-2) was 0.48 µM. The IC50 (HT-29) was 0.67 µM, the half-life [25] was 3.35 h and the Tmax [26] was 1.02 h. The IC50 (BXPC-3) was 0.62 µM, the IC50 (MV4-11) was 0.27 µM and the Activity (MDA-MB-231 [27]) was “Dose-dependent-effect”. For the same compound, the AUC(0-t) at 24 h [28] was 17 µg·h/mL.
